Data from US20060051835A1, “Pael receptor, cells and animal expressing pael receptor and method of screning remedy for parkinson's disease” (priority 2001, published 2006).

How the values were obtained:
SH-SY5Y cells = test: Cell death assay in SH-SY5Y cells with or without Pael receptor overexpression; format: cell-based
From the text: Descriptions concerning expression plasmids for Parkin, Parkin variants, UBCH6, UBCH7 and Ubiquitin are as described in Imai, Y. et al. (2000) J Biol Chem 275, 35661-35664. The full-length complementary strand DNAs (cDNAs) of human and mouse Pael receptors, human ETBR-LP-2, human UBC6, UBC7 and E2-25K were obtained by reverse transcription (RT)-PCR. The full-length cDNA of ETA-R and that of ETB-R were obtained from the RIKEN Gene Bank. Recombinant GST-Parkin, GST-A Ex 4, 6×His tagged UBC6 and UBC7 were produced in the Escherichia coli BL21 strain (DE3) pLysS (Novagen). Site-directed mutagenesis to the active center cysteine of UBC6 and UBC7 was performed by the PCR method. UBC6 of a putative membrane insertion site-deficient type (UBC6ΔC; 1 to 288 amino residues) is expressed better than wild type UBC6 in Escherichia coli and has high enzyme activity, so that UBC6ΔC was subjected to in vitro ubiquitination assay. Anti-Myc (9E10), anti-HA (Y-11), anti-Ubiquitin (FL-76), anti-BiP (N-20) and anti-actin (C-2) antibodies were purchased from Santa Cruz Biotech. Anti-FLAG (M2), anti-HA (3F10), anti-Ubiquitin (1B3), anti-GluR4 (AB1508) and anti-NSE (BBS/NC/VI-H14) were purchased from Sigma, Roche Diagnostics, MBL (Nagoya, Japan), Chemicon and Dako, respectively. Anti-UCH-L1 antibodies were provided by Dr. Keiji WADA (National Center of Neurology and Psychiatry, Japan). 293T cells derived from a human fetal kidney and SH-SY5Y cells derived from neuroblastoma were subjected to gene transfer, immunoprecipitation, Western blot, immunocytochemistry and cell death assay according to the method as described in Imai et al., 2000.
To confirm this prediction, the effect of a proteasome inhibitor and that of a UPR inducer on cell death resulting from the overexpression of Pael receptors were examined (FIG. 11). Vectors (−) having no gene inserted therein or expression plasmids for Pael receptors (+) were gene-transferred with expression plasmids for enhanced green fluorescent proteins (EGFP) to SH-SY5Y cells. The cells were then cultured in the presence (Lc, 20 μM) or the absence (non) of lactacysin, and the presence of tunicamycin (Tm, 5 μg/ml) or 2-ME (2 mM) for 16 hours. Cell death was counted by the method described in Imai, Y. et al. (2000) J Biol Chem 275, 35661-35664. In FIG. 11, the line of error indicates the standard deviation (S.D.) calculated from three experiments.

Pael receptor [1] = test: Western blotting of 1% Triton X-100-soluble and -insoluble fractions of Pael receptor-transfected SH-SY5Y cells; format: cell-based, human; conditions: 16 hours, lactacystin 10 μM, tunicamycin 1 μg/ml, 2-ME 1 mM; for Pael receptors in the insoluble fraction: 1% Triton X-100-insoluble fraction; for expression of BiP (GRP78) and of endogenous Parkin in the soluble fraction: cells over-expressing Pael receptors
Protocol: Cells were suspended in a cytolysis buffer (consisting of 20 mM HEPES, pH 7.4, 120 mM NaCl, 5 mM EDTA, 10% glycerol, 1% Triton X-100 and Complete Protease Inhibitors [Roche Diagnostics]) and then lysed at 4° C. for 30 minutes. The forebrain cortex of the human cerebrum was suspended in a cytolysis buffer, and then crushed using a downs homogenizer. The sample was fractionated into surfactant-soluble and insoluble fractions, and then immuno-precipitated according to a modified method of Ward et al. (1995) Cell 83, 121-127. Specifically, the suspension was fractionated by centrifugation at 15,000×g for 30 minutes. The supernatant derived from 1% Triton X-100 soluble fraction was directly subjected to immunoprecipitation. The insoluble pellet fraction was washed 4 times in an ice-cooled cytolysis buffer. Subsequently, the fraction was subjected to lysis at 60° C. for 1 hour in a cytolysis buffer supplemented with sodium lauryl sulfate (SDS) with a final concentration of 1%. A cytolysis buffer containing 10 mM MgCl2 and 25 μg/ml DNase I and having a volume 10 times greater than that of the solution was added. The solution was allowed to react at 37° C. for 10 minutes. After centrifugation at 15,000×g for 30 minutes, the supernatant derived from 1% Triton X-100 insoluble fraction was subjected to immunoprecipitation using various antibodies and protein G-coupled or protein A/G (50/50%)-coupled Sepharose beads (Amersham-Pharmacia). The immunoprecipitate was washed 4 times in a cytolysis buffer containing no complete protease inhibitors. 1% Triton X-100-soluble and -insoluble fractions of total cell extract, or immunoprecipitates derived from the 1% Triton X-100-soluble fraction and -insoluble fraction were subjected to Western blot analysis using ECL detection reagent (Amersham-Pharmacia). Proteins were quantified using Coomassie protein assay reagent (Pierce).
Vectors (−) having no gene inserted therein or expression plasmids (+) for Pael receptors were gene-transferred to SH-SY5Y cells, and then the cells were cultured for 20 hours. Next, in the presence or the absence of lactacystin (10 μM) and in the presence of tunicamycin (1 μg/ml) or 2-mercaptoethanol (2-ME; 1 mM), the cells were cultured for 16 hours. The cells were lysed in a buffer containing 1% Triton X-100, and then fractionated by the method described in Ward et al., 1995 Cell 83, 121-127. Insoluble Pael receptors were immunoprecipitated as described above from the insoluble fraction of the same sample, and then analyzed using anti-Ub polyclonal antibodies (FIG. 10). 1% Triton-X100-insoluble or -soluble fraction was obtained under various conditions, including cases wherein Pael receptor cDNA had not been transfected (−) or transfected (+) to SH-SY5Y cells, and then subjected to Western blotting. Even in an untreated state, Pael receptors were already present in the insoluble fraction at a level equivalent to that of the soluble fraction.

Pael receptor [2] = test: Immunocytochemistry, intracellular distribution of over-expressed Pael receptors in SH-SY5Y cells; format: cell-based, human; conditions: SH-SY5Y cells transfected with Pael receptor plasmids, treated for 6 hours
Protocol: For immunocytochemistry, a human Pael receptor expression vector (1 μg per sample) was gene-transferred, or was gene-transferred in combination with 0.3 μg of red fluorescent protein expression vector (pDsRed1-N1, Clontech) having endoplasmic reticulum localization sequence of calreticulin or Golgi body localization sequence of human β1, 4-galactosyltransferase into SH-SY5Y cells inoculated on a 8-well chamber slide. After 20 hours of culturing, the cells were exposed to 20 μM lactacystin for 16 hours. After washed in phosphate buffered saline, the cells were fixed with 0.2% glutaraldehyde and 2% formaldehyde. Subsequently, the cells were stained with anti-human Pael receptor antibodies or anti-BiP antibodies. For immunohistochemistry, the carboxyl terminal site (541 to 600 amino residues) of mouse Pael receptor was expressed as a GST fusion protein in Escherichia coli. The anti-Pael receptor polyclonal antibody was prepared against a recombinant protein from which the GST portion had been removed. 14 μm-thick frozen sections of the mouse C57BL/6 brain tissue were allowed to react with anti-Pael receptor antibodies (1:200 dilution), anti-TH antibodies (Chemicon, 1:100), anti-NeuN antibodies (Chemicon, 1:200) or anti-CNPase antibodies (Sigma, 1:100). The primary antibody was stained with Alexa 488 or Alexa 546 (Molecular Probes)-labeled secondary antibody. The stained cells or sections were mounted using SlowFade (Molecular probes), and then observed under a confocal laser fluorescence microscope (Fluoview, Olympus).
Furthermore, to confirm the involvement of cell death induced by misfolded proteins in cell death resulting from overexpression of Pael receptors, intracellular distribution of Pael receptors in the presence or the absence of lactacystin was examined. […] Expression plasmids for Pael receptors were gene-transferred to SH-SY5Y cells, and then the cells were cultured in the presence (middle and lower panels) or the absence (upper panel) of lactacystin for 6 hours. […]

Pael receptor [3] = test: Pulse-chase experiment, turnover of 35S-labeled Pael receptor; format: cell-based, human; conditions: 10 μM lactacystin, relative to level at time 0
Protocol: Pael receptors having FLAG-tagged carboxyl termini (Pael receptor-FLAG) and expression plasmids for Parkin or control plasmids were gene-transferred to SH-SY5Y cells. 36 hours later, the cells were cultured for 1 hour in Dulbecco's modified eagle's medium (M/C-free DMEM) containing 5% fetal calf serum (FCS) but containing no methionine/cysteine under conditions involving the presence or the absence of 10 μM lactacystin. The cells were then labeled at 37° C. for 30 minutes by adding 200 μCi/ml ^35S-methionine/cysteine to the 5% FCS-containing M/C-free DMEM in the presence or the absence of 10 μM lactacystin. […] The metabolically labeled Pael receptor was quantified using Image Gauge software (Fujifilm). Next, to examine whether Parkin degrades the Pael receptor in the ubiquitin-proteasome system, the turnover rate of the Pael receptor was measured under conditions involving the presence or the absence of Parkin by the pulse-chase experiment (FIG. 9). […] Subsequently, ^35S-methionine/cysteine were added for labeling, and then the cells were chased for the time indicated in FIG. 9 in the presence (Lc +) or the absence (Lc −) of 10 μM lactacystin. ^35S-labeld Pael receptors were immunoprecipitated, detected by radioautography (FIG. 9 left), and then quantified by phosphor imaging (FIG. 9 right). […]

[4] = Pael receptor-over-expressing SH-SY5Y cells, 16 hours, lactacystin 20 μM, tunicamycin 5 μg/ml, 2-ME 2 mM
[5] = control SH-SY5Y cells, 16 hours, tunicamycin 5 μg/ml, 2-ME 2 mM

Row | Molecule | cells died (SH-SY5Y cells; [4]) | cells died (SH-SY5Y cells; [5]) | Pael receptors in the insoluble fraction (Pael receptor [1]) | expression of BiP (GRP78) and of endogenous Parkin in the soluble fraction (Pael receptor [1]) | intracellular distribution of Pael receptors (Pael receptor [2]) | Pael receptors remained after 180 minutes of chasing (Pael receptor [3]; SH-SY5Y cells over-expressing Parkin) | Pael receptors remained after 180 minutes of chasing (Pael receptor [3]; control SH-SY5Y cells) | cells died (SH-SY5Y cells; human, 16 h, 20 μM)
1 | tunicamycin | approximately 60% | 40% | increased with a high-molecular-weight shift | caused increases | the same | – | – | –
2 | CC(=O)N[C@@H](CSC(=O)[C@]1([C@@H](O)C(C)C)NC(=O)[C@H](C)[C@@H]1O)C(=O)O [lactacystin] | – | – | increased with a high-molecular-weight shift | caused increases | accumulated in the endoplasmic reticulum | 58% | 54% | approximately 50%
3 | OCCS [2-ME, 2-mercaptoethanol] | approximately 60% | 40% | increased with a high-molecular-weight shift | caused increases | the same | – | – | –
